US20070060512A1, “Dipeptidyl-peptidase protected protein” (priority 2003, published 2007)
Where no end group is shown, it is not given here.

What was measured:
[1] = compared to GLP-1; cited from earlier work
[2] = second N-terminal alanine replaced with serine; cited from earlier work
Zucker rats [3] = assay: Glucose Tolerance Test in Zucker rats; type: in vivo, rat; conditions: fasted Zucker rats, subcutaneous injection 30 minutes before glucose 1.5 mg/g body weight; versus untreated animals
Procedure: In this Example, modified GLP-1/mTf of the present invention is used as a therapeutic agent to treat diabetes. Modified GLP-1/mTf is administered to Zucker rats, a standard animal model for type II diabetes. Zucker rats have abnormally high blood glucose levels. […] Zucker rats are fasted overnight and then treated with H-GLP-1 or H-GLP-1 fused to transferrin (H-GLP-1/mTf). Thirty minutes after subcutaneous injection of H-GLP-1 or H-GLP-1/mTf, the animals are subjected to a Glucose Tolerance Test (GTT). For this test, fasted animals are fed glucose solution (1.5 mg/g body weight), and the blood glucose is measured at appropriate time intervals.

Zucker rats [4] = assay: Fasting glucose of Zucker rats without glucose administration; type: in vivo, rat; conditions: versus untreated animals
Source text: In a further experiment, modified H-GLP-1 or H-GLP-1/mTf is used to normalize the high fasting glucose of the Zucker rats without glucose administration.

recombinant human DPP-IV = target: T1, recombinant human DPP-IV (Homo sapiens, UniProt P27487); assay: Dipeptidylpeptidase-IV treatment of mTf fusion proteins, cyclic AMP stimulation assay in CHO-GLP1R cells; type: in vitro ADME; conditions: 2 μM fusion protein, DPP-IV 1 μg/μL, room temperature 2 hours; cAMP in CHO-GLP1R cells
T1 construct: purchased R&D Systems
Procedure: Control reactions excluding DPP-IV were set-up in parallel for each fusion protein. The digests were incubated at room temperature for 2 hours, at which time the reactions were diluted 20-fold in Krebs-Ringer buffer (Biosource International) supplemented with 1 mM IBMX (Calbiochem).
Tissue culture plates (24-well) were seeded with CHO-GLP1R cells at a density of 1×10^5 cells per/well in RPMI/10% FBS medium one day prior to treatment. The next day the cells appeared uniformly distributed with an approximate confluency of 60-80 percent. One day after seeding the culture plates the cells were washed twice with Krebs-Ringer buffer (KRB) followed by incubation in KRB for 1 hr at 37° C. to lower the intracellular levels of cAMP. This was followed by incubation for 10 minutes in KRB/IBMX to inhibit intracellular enzymes that break down cAMP. Dilutions of each test compound were prepared in KRB/IBMX and triplicate wells of CHO-GLP1R cells were treated with 0.15 ml of test compound per well for exactly 50 minutes at 37° C. The treatment was halted by washing the cultures two times with ice-cold phosphate-buffered saline. […]

T1 sequence (P27487 whole entry, the tested form may be a part): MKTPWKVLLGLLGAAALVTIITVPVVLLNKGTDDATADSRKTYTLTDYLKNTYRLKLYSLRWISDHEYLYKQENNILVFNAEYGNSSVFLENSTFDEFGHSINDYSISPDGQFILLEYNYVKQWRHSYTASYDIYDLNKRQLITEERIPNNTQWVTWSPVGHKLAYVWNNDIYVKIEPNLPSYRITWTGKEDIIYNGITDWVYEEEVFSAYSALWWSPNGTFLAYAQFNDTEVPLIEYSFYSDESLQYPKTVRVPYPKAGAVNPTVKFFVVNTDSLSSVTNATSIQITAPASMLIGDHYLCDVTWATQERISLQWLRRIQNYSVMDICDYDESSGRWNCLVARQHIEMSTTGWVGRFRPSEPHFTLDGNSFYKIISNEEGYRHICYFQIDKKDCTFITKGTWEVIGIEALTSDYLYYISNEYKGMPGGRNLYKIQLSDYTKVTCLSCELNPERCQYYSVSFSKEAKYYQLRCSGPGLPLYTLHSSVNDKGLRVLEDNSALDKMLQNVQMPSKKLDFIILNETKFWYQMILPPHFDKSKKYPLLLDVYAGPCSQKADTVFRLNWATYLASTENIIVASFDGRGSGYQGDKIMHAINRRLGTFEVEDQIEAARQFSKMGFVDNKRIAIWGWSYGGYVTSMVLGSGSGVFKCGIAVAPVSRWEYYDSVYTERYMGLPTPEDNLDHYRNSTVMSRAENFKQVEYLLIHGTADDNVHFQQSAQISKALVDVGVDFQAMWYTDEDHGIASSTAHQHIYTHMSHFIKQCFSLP

| Molecule | plasma stability [1] | insulinotropic action [2] | normalization of blood glucose level in Glucose Tolerance Test (Zucker rats [3]) | fasting blood glucose level (Zucker rats [4]) | resistance to DPP-IV (recombinant human DPP-IV) |
| --- | --- | --- | --- | --- | --- |
| [Ser^8]GLP-1: GLP-1 analog in which the second N-terminal alanine is replaced with serine (Ritzel et al.) (HSEGTFTSDVSSYLEGQAAKEFIAWLVKGRG; Glucagon-like peptide 1(7-37); UniProt P01275 98-128, looked up, variant A8S) | increased plasma stability as compared to GLP-1 | did not impair the insulinotropic action | – | – | – |
| H-GLP-1/mTf: H-GLP-1(7-36) fused to modified transferrin (mTf), expressed in Saccharomyces from pREX0368 (HHAEGTFTSDVSSYLEGQAAKEFIAWLVKGR; also: fused to modified transferrin (mTf)) | – | – | faster normalization of blood glucose level | significant drop | more resistant to DPP-IV than GLP-1/mTf |
| CC[C@H](C)[C@H](NC(=O)[C@H](Cc1ccccc1)NC(=O)[C@H](CCC(=O)O)NC(=O)[C@H](CCCCN)NC(=O)[C@H](C)NC(=O)[C@H](C)NC(=O)[C@H](CCC(N)=O)NC(=O)CNC(=O)[C@H](CCC(=O)O)NC(=O)[C@H](CC(C)C)NC(=O)[C@H](Cc1ccc(O)cc1)NC(=O)[C@H](CO)NC(=O)[C@H](CO)NC(=O)[C@@H](NC(=O)[C@H](CC(=O)O)NC(=O)[C@H](CO)NC(=O)[C@@H](NC(=O)[C@H](Cc1ccccc1)NC(=O)[C@@H](NC(=O)CNC(=O)[C@H](CCC(=O)O)NC(=O)[C@H](C)NC(=O)[C@H](Cc1c[nH]cn1)NC(=O)[C@@H](N)Cc1c[nH]cn1)[C@@H](C)O)[C@@H](C)O)C(C)C)C(=O)N[C@@H](C)C(=O)N[C@@H](Cc1c[nH]c2ccccc12)C(=O)N[C@@H](CC(C)C)C(=O)N[C@H](C(=O)N[C@@H](CCCCN)C(=O)NCC(=O)N[C@@H](CCCNC(=N)N)C(=O)O)C(C)C [H-GLP-1] | – | – | faster normalization of blood glucose level | significant drop | – |
